# Test results from patent US10111889B2, “Uses of ganaxolone” (priority 2014, dated 2018).
# Columns and labels:
# RQ mice = experiment: Evaluation of sleep patterns (video and EEG) in RQ mice; format: in vivo, mouse; details: 2 mg/kg i.p. on two consecutive days
# Description: RR and RQ mice (n=3 each) were monitored with video and EEG recordings. […] Sleep stages (Wake, NREM and REM) were scored visually from the EEG by an experienced scorer. For statistical analysis, EEG delta power (0.5-4 Hz) was normalized by dividing by the sum of power in the non-delta bands (6-100 Hz).
# WAG/Rij mice = details: administered directly into somatosensory cortex; cited from earlier work
# [1] = clinical trials; even at very high doses; cited from earlier work
# GABAA receptor = experiment: Whole-cell patch clamp, tonic/holding current in somatosensory cortical layer II/III pyramidal cells of brain slices; format: cell-based, mouse; details: 30 μM
# Description: Horizontal slices (400 μm) were prepared from the brains of C57BL/6J mice RR and RQ mice of either sex (16-26 days old). […] Mice were anesthetized with isoflurane, decapitated, and the brain was removed and placed in ice-cold cutting solution containing (in mM): 125 NaCl, 25 NaHCO3, 2.5 KCl, 1.25 NaH2PO4, 0.5 CaCl2, 3.35 MgCl2, 25 D-Glucose, 13.87 M sucrose, and bubbled with 95% O2 and 5% CO2. Slices were cut using a vibratome (Leica VT 1000S, Global Medical Imaging; Ramsey, Minn.) and placed in an incubation chamber containing standard 2 mM CaCl2, 1 mM MgCl2 artificial cerebrospinal fluid (ACSF) at room temperature for 1 hour before being used for recordings. Whole cell patch-clamp recordings were made from somatosensory cortical layer II/III pyramidal cells or ventrobasal thalamic relay cells, visualized using an upright differential interference contrast microscope (Axioskop FS2, Zeiss; Oberkochen, Germany). […]
# Additional segments (30 s) just prior to and 90 s after bicuculline administration were analyzed to quantify inhibitory tonic currents. […] Tonic current was calculated as the difference between the fitted Gaussian means before and after bicuculline administration. Current density (pA/pF) was calculated by dividing the current by cell capacitance.
# wild-type (RR) mice = experiment: EEG monitoring of SWDs in wild-type (RR) mice after blocking cortical tonic inhibition; format: in vivo, mouse
# Description: The present study used wild-type Harlan C57BL/6J-OlaHsd and γ2R43Q knock-in mice bred into a background of C57BL/6J-OlaHsd mice. Behavioral and electrographic markers of absence epilepsy in these animals were confirmed by video-EEG monitoring. In-depth detailing of surgery and electrode implantation are described in the prior art. Briefly, P24 mice were implanted, under isoflurane anesthesia (1%-2% in 100% O2), for chronic EEG recordings with gold plated miniature screw electrodes over the right and left frontal and parietal cortices, and one over the cerebellum as reference. Two vinyl-coated braided stainless steel wire electrodes were placed in the nuchal muscle for electromyogram (EMG) recording of muscle activity. All electrodes were gathered into a flexible cable and connected to the Multichannel Neurophysiology Recording system (Tucker-Davis Technologies, TDT, Alachua, Fla., USA). […] Continuous EEG recordings with occasional video monitoring were made and SWDs were scored off-line. […] Only SWD events that occurred >2 min from slow-wave-sleep periods were used for quantification. SWD event durations were measured from the first synchronized positive peak signal to the last synchronized positive peak within an event. […]
# When comparing normally distributed data, two groups were assessed with a t-test and comparisons of three or more were assessed with ANOVA. […]
# wild-type mice = details: thalamus of wild-type mice; cited from earlier work
structure (smiles),measurement,setting,value
"CC(=O)[C@H]1CC[C@H]2[C@@H]3CC[C@H]4C[C@](C)(O)CC[C@]4(C)[C@H]3CC[C@]12C [GANX, 3α-hydroxy-3β-methyl-5α-pregnan-20-one]",briefer Wake durations of RQ mice,RQ mice; RQ mice,not reversed
same,shorter brief awakenings (<=16 seconds) of RQ mice,RQ mice; RQ mice,not altered
same,shorter durations of single NREM episodes of RQ mice,RQ mice; RQ mice,reversed by GANX to normal levels
same,higher normalized delta power of RQ mice,"RQ mice; RQ mice, normal sleep time (daylight)",reversed by GANX toward normal levels
same,durations of REM,"RQ mice; RR, RQ, RQ with GANX",No groups differed
same,number of brief awakenings,"RQ mice; RR, RQ, RQ with GANX",did not differ between any groups
same,number of SWDs observed,WAG/Rij mice,decreases the number of SWDs
same,side effects,[1],relatively modest side effects
"CCOC(=O)c1ncn2c1C1CCCN1C(=O)c1cc(OC)ccc1-2 (stereo not shown) [L655,708, 11,12,13,13a-Tetrahydro-7-methoxy-9-oxo-9H-imidazo[1,5-a]pyrrolo[2,1-c][1,4]benzodiazepine-1-carboxylic acid, ethyl ester]",tonic current in RR somatosensory cortical layer II/III cells,GABAA receptor,completely blocked
same,SWD generation in RR mice,wild-type (RR) mice; 2 mg/kg i.p.,produced SWDs
same,persistence of SWDs after the last injection,"wild-type (RR) mice; injected twice a day for 2 consecutive days, wild-type mice",still displayed SWDs 3 days after the last injection
"Oc1noc2c1CCNC2 [THIP, 4,5,6,7-tetrahydroisoxazolo[5,4-c]pyridin-3-ol]",SWDs associated with absence epilepsy,wild-type mice,produces the SWDs
CC(=O)[C@H]1CC[C@H]2[C@@H]3CC[C@H]4C[C@H](O)CC[C@]4(C)[C@H]3CC[C@]12C [allopregnanolone],number of SWDs observed,WAG/Rij mice,decreases the number of SWDs
